For four molecules, TGI and GI50 results are on record in PubChem BioAssay (NCI).

What all share (assay): NCI anticancer screen, dose series, 48 h
For test [1], the system named is ACHN renal.
The subject of test [2] is BT-549 breast.
Test [3] deals with IGROV1 ovarian.
The test system of test [4] is MALME-3M melanoma.
Test [5] deals with NCI-H23 lung.
For test [6], the system named is NCI-H460 lung.
Test [7] has as its system NCI/ADR-RES ovarian.
Test [8] concerns OVCAR-8 ovarian.
Test [9] deals with SF-268 CNS.
Test [10] deals with TK-10 renal.

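In this assay, cells in 96-well plates receive the compound at five concentrations for 48 hours. Endpoints are linearly interpolated between the surrounding concentrations. GI50 is the concentration that inhibits growth by half. TGI marks complete inhibition of growth.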 Some results are limits rather than exact numbers.

Turning to `COc1ccc2c(c1)CCCC(Br)C2=O` (stereo not given), the TGI is 20.7 µM in test [1]; 7.31 µM in test [2]; 4.28 µM in test [3]; 21.5 µM in test [4]; 26.3 µM in test [5]; 10.5 µM in [6]. Moreover, the TGI in test [7] was above 29.9 µM; in test [8], above 31.9 µM; in test [9], 12.5 µM; in test [10], 16.8 µM.

Consider `CC(C)CCN1c2nc(Nc3cc(F)c(O)c(F)c3)ncc2N(C)C(=O)C1C` (stereo not given), for which the GI50 in test [1] is 3.21 µM; in test [2] it was 5.66 µM; in test [3] it was 8.83 µM; in test [4], 6.63 µM; in [5], 5.27 µM; in test [6], 3.91 µM. Moreover, the GI50 is 7.81 µM in test [7], 17.6 µM in [8], 5.81 µM in test [9] and 4.34 µM in test [10]. The TGI in test [1] was above 59.5 µM; in test [2], above 67.7 µM; in test [3] it was above 61.2 µM; in [4], 64 µM; in test [5] it was 67.8 µM; in test [6], 17 µM. For the same molecule, the TGI in [7] was above 100 µM; in test [8] it was above 100 µM; in test [9] it was 56.8 µM; in [10], above 87.2 µM.

As to `C=C1C(=O)OC2CCN3CC=C(COC(=O)C(C)(O)C4(CO4)C1C)C23` (stereo not given), the TGI in test [1], in test [2], in test [3], in [4], in test [5] and in test [6] was above 100 µM throughout. The TGI in test [7], in [8], in [9] and in [10] was above 100 µM throughout.

As to `CCCCCCCCCCCCCC1=NC(C)(C)CN1C(C)C`, the GI50 in test [1] is 1.64 µM; in test [2], 2.33 µM; in test [3], 1.08 µM; in [4], 1.7 µM; in test [5] it was 1.67 µM; in test [6], 1.89 µM. Further, the GI50 in test [7] was 1.67 µM; in test [8], 1.78 µM; in [9], 1.76 µM; in [10] it was 1.58 µM. The TGI in [1] turned out to be 2.99 µM; in test [2], 6 µM; in test [3], 2.26 µM; in [4] it was 3.41 µM; in test [5] it was 3.11 µM; in [6] it was 3.3 µM. The TGI is 3.51 µM in test [7], 3.42 µM in test [8], 3.14 µM in [9] and 3 µM in [10].
